From patent US11661413B2, “Pyrazole compounds or salts thereof, preparation method therefor, herbicidal composition and use thereof” (priority 2015, dated 2023)

Key:
[1] = tested on: Barnyard grass; assay: weed control effect in post emergence stage, greenhouse pot spray; type: in vivo; conditions: sprayed at 2-3 leaf stage, after 3 weeks
Protocol: (§1) The activity level standard of harmful plant damage (i.e. growth inhibition rate) is as follows: The above described growth control rate is fresh weight control rate. Monocotyledonous and dicotyledonous weed seeds and main crop seeds (i.e. wheat, corn, rice, soybean, cotton, oilseed, millet and Sorghum) were put into a plastic pot loaded with soil. Then covered with 0.5-2 cm soil, the seeds were allowed to grow in good greenhouse environment. The test plants were treated at 2-3 leaf stage 2-3 weeks after sowing. […] The solution was sprayed to the plants with a sprayer. Then the plants were cultured for 3 weeks in the greenhouse.

[2] = tested on: Flixweed; assay: as above; type: in vivo; conditions: 16 g/mu, sprayed at 2-3 leaf stage, after 3 weeks
Protocol: as §1

CCn1nc(C)c(C(=O)c2ccc(S(C)(=O)=O)c(Cn3cc(C)cn3)c2Cl)c1O [Compound 16]
weed control effect (activity level), Barnyard grass ([1]; 1 g/mu): 2 (above 20% growth inhibition rate) | weed control effect (activity level), Barnyard grass ([1]; 2 g/mu): 3 (above 30% growth inhibition rate) | weed control effect (activity level), Barnyard grass ([1]; 4 g/mu): 4 (above 30% growth inhibition rate) | weed control effect (activity level), Barnyard grass ([1]; 8 g/mu): 4 (above 30% growth inhibition rate) | weed control effect (activity level), Barnyard grass ([1]; 16 g/mu): 6 (above 60% growth inhibition rate) | weed control effect (activity level), Flixweed [2]: 10

Cc1cnn(Cc2c(S(C)(=O)=O)ccc(C(=O)c3cnn(C)c3O)c2Cl)c1 [Compound 7]
weed control effect (activity level), Barnyard grass ([1]; 1 g/mu): 2 (above 20% growth inhibition rate) | weed control effect (activity level), Barnyard grass ([1]; 2 g/mu): 3 (above 30% growth inhibition rate) | weed control effect (activity level), Barnyard grass ([1]; 4 g/mu): 3 (above 30% growth inhibition rate) | weed control effect (activity level), Barnyard grass ([1]; 8 g/mu): 6 (above 60% growth inhibition rate) | weed control effect (activity level), Barnyard grass ([1]; 16 g/mu): 6 (above 60% growth inhibition rate) | weed control effect (activity level), Flixweed [2]: 10

CCn1nc(C2CC2)c(C(=O)c2ccc(S(C)(=O)=O)c(Cn3cc(C)cn3)c2Cl)c1O [Compound 22]
weed control effect (activity level), Barnyard grass ([1]; 1 g/mu): 2 (above 20% growth inhibition rate) | weed control effect (activity level), Barnyard grass ([1]; 2 g/mu): 4 (above 30% growth inhibition rate) | weed control effect (activity level), Barnyard grass ([1]; 4 g/mu): 6 (above 60% growth inhibition rate) | weed control effect (activity level), Barnyard grass ([1]; 8 g/mu): 6 (above 60% growth inhibition rate) | weed control effect (activity level), Barnyard grass ([1]; 16 g/mu): 10 | weed control effect (activity level), Flixweed [2]: 10

Cn1ncc(C(=O)c2ccc(S(C)(=O)=O)c(Cn3cc(Cl)cn3)c2Cl)c1O [Compound 10]
weed control effect (activity level), Barnyard grass ([1]; 1 g/mu): 2 (above 20% growth inhibition rate) | weed control effect (activity level), Barnyard grass ([1]; 2 g/mu): 4 (above 30% growth inhibition rate) | weed control effect (activity level), Barnyard grass ([1]; 4 g/mu): 4 (above 30% growth inhibition rate) | weed control effect (activity level), Barnyard grass ([1]; 8 g/mu): 7 (above 70% growth inhibition rate) | weed control effect (activity level), Barnyard grass ([1]; 16 g/mu): 8 (above 80% growth inhibition rate) | weed control effect (activity level), Flixweed [2]: 10

CCc1nn(CC)c(O)c1C(=O)c1ccc(S(C)(=O)=O)c(Cn2nc(C)cc2C)c1Cl [Compound 26]
weed control effect (activity level), Barnyard grass ([1]; 1 g/mu): 2 (above 20% growth inhibition rate) | weed control effect (activity level), Barnyard grass ([1]; 2 g/mu): 2 (above 20% growth inhibition rate) | weed control effect (activity level), Barnyard grass ([1]; 4 g/mu): 4 (above 30% growth inhibition rate) | weed control effect (activity level), Barnyard grass ([1]; 8 g/mu): 3 (above 30% growth inhibition rate) | weed control effect (activity level), Barnyard grass ([1]; 16 g/mu): 5 (above 50% growth inhibition rate) | weed control effect (activity level), Flixweed [2]: 10

CCc1nn(CC)c(O)c1C(=O)c1ccc(S(C)(=O)=O)c(Cn2cc(C)cn2)c1Cl [Compound 25]
weed control effect (activity level), Barnyard grass ([1]; 1 g/mu): 2 (above 20% growth inhibition rate) | weed control effect (activity level), Barnyard grass ([1]; 2 g/mu): 3 (above 30% growth inhibition rate) | weed control effect (activity level), Barnyard grass ([1]; 4 g/mu): 4 (above 30% growth inhibition rate) | weed control effect (activity level), Barnyard grass ([1]; 8 g/mu): 4 (above 30% growth inhibition rate) | weed control effect (activity level), Barnyard grass ([1]; 16 g/mu): 5 (above 50% growth inhibition rate) | weed control effect (activity level), Flixweed [2]: 10

Cc1nn(C(C)C)c(O)c1C(=O)c1ccc(S(C)(=O)=O)c(Cn2cc(Cl)cn2)c1Cl [Compound 30]
weed control effect (activity level), Barnyard grass ([1]; 1 g/mu): 2 (above 20% growth inhibition rate) | weed control effect (activity level), Barnyard grass ([1]; 2 g/mu): 3 (above 30% growth inhibition rate) | weed control effect (activity level), Barnyard grass ([1]; 4 g/mu): 5 (above 50% growth inhibition rate) | weed control effect (activity level), Barnyard grass ([1]; 8 g/mu): 7 (above 70% growth inhibition rate) | weed control effect (activity level), Barnyard grass ([1]; 16 g/mu): 7 (above 70% growth inhibition rate) | weed control effect (activity level), Flixweed [2]: 10

CCCCCOc1c(C(=O)c2ccc(S(C)(=O)=O)c(Cn3nc(C)cc3C)c2Cl)c(C)nn1C [Compound 38]
weed control effect (activity level), Barnyard grass ([1]; 1 g/mu): 0 | weed control effect (activity level), Barnyard grass ([1]; 2 g/mu): 1 (above 1-10% growth inhibition rate) | weed control effect (activity level), Barnyard grass ([1]; 4 g/mu): 1 (above 1-10% growth inhibition rate) | weed control effect (activity level), Barnyard grass ([1]; 8 g/mu): 2 (above 20% growth inhibition rate) | weed control effect (activity level), Barnyard grass ([1]; 16 g/mu): 2 (above 20% growth inhibition rate) | weed control effect (activity level), Flixweed [2]: 2 (above 20% growth inhibition rate)

CCn1nc(C2CC2)c(C(=O)c2ccc(S(C)(=O)=O)c(Cn3nc(C)cc3C)c2Cl)c1O [Compound 23]
weed control effect (activity level), Barnyard grass ([1]; 1 g/mu): 2 (above 20% growth inhibition rate) | weed control effect (activity level), Barnyard grass ([1]; 2 g/mu): 3 (above 30% growth inhibition rate) | weed control effect (activity level), Barnyard grass ([1]; 4 g/mu): 5 (above 50% growth inhibition rate) | weed control effect (activity level), Barnyard grass ([1]; 8 g/mu): 7 (above 70% growth inhibition rate) | weed control effect (activity level), Barnyard grass ([1]; 16 g/mu): 8 (above 80% growth inhibition rate) | weed control effect (activity level), Flixweed [2]: 10

Cc1cc(C)n(Cc2c(S(C)(=O)=O)ccc(C(=O)c3cnn(C)c3O)c2Cl)n1 [Compound 9]
weed control effect (activity level), Barnyard grass ([1]; 1 g/mu): 2 (above 20% growth inhibition rate) | weed control effect (activity level), Barnyard grass ([1]; 2 g/mu): 2 (above 20% growth inhibition rate) | weed control effect (activity level), Barnyard grass ([1]; 4 g/mu): 3 (above 30% growth inhibition rate) | weed control effect (activity level), Barnyard grass ([1]; 8 g/mu): 5 (above 50% growth inhibition rate) | weed control effect (activity level), Barnyard grass ([1]; 16 g/mu): 5 (above 50% growth inhibition rate) | weed control effect (activity level), Flixweed [2]: 10

CCOC(=O)Oc1c(C(=O)c2ccc(S(C)(=O)=O)c(Cn3nc(C)cc3C)c2Cl)c(C)nn1C [Compound 36]
weed control effect (activity level), Barnyard grass ([1]; 1 g/mu): 2 (above 20% growth inhibition rate) | weed control effect (activity level), Barnyard grass ([1]; 2 g/mu): 3 (above 30% growth inhibition rate) | weed control effect (activity level), Barnyard grass ([1]; 4 g/mu): 4 (above 30% growth inhibition rate) | weed control effect (activity level), Barnyard grass ([1]; 8 g/mu): 4 (above 30% growth inhibition rate) | weed control effect (activity level), Barnyard grass ([1]; 16 g/mu): 5 (above 50% growth inhibition rate) | weed control effect (activity level), Flixweed [2]: 10

CCc1nn(C(C)C)c(O)c1C(=O)c1ccc(S(C)(=O)=O)c(Cn2nc(C)cc2C)c1Cl [Compound 29]
weed control effect (activity level), Barnyard grass ([1]; 1 g/mu): 2 (above 20% growth inhibition rate) | weed control effect (activity level), Barnyard grass ([1]; 2 g/mu): 3 (above 30% growth inhibition rate) | weed control effect (activity level), Barnyard grass ([1]; 4 g/mu): 5 (above 50% growth inhibition rate) | weed control effect (activity level), Barnyard grass ([1]; 8 g/mu): 7 (above 70% growth inhibition rate) | weed control effect (activity level), Barnyard grass ([1]; 16 g/mu): 8 (above 80% growth inhibition rate) | weed control effect (activity level), Flixweed [2]: 10

CCS(=O)(=O)Oc1c(C(=O)c2ccc(S(C)(=O)=O)c(Cn3cc(C)cn3)c2Cl)c(C)nn1C [Compound 32]
weed control effect (activity level), Barnyard grass ([1]; 1 g/mu): 5 (above 50% growth inhibition rate) | weed control effect (activity level), Barnyard grass ([1]; 2 g/mu): 6 (above 60% growth inhibition rate) | weed control effect (activity level), Barnyard grass ([1]; 4 g/mu): 5 (above 50% growth inhibition rate) | weed control effect (activity level), Barnyard grass ([1]; 8 g/mu): 7 (above 70% growth inhibition rate) | weed control effect (activity level), Barnyard grass ([1]; 16 g/mu): 8 (above 80% growth inhibition rate) | weed control effect (activity level), Flixweed [2]: 10

CCn1ncc(C(=O)c2ccc(S(C)(=O)=O)c(Cn3cc(C)cn3)c2Cl)c1O [Compound 19]
weed control effect (activity level), Barnyard grass ([1]; 1 g/mu): 2 (above 20% growth inhibition rate) | weed control effect (activity level), Barnyard grass ([1]; 2 g/mu): 3 (above 30% growth inhibition rate) | weed control effect (activity level), Barnyard grass ([1]; 4 g/mu): 3 (above 30% growth inhibition rate) | weed control effect (activity level), Barnyard grass ([1]; 8 g/mu): 4 (above 30% growth inhibition rate) | weed control effect (activity level), Barnyard grass ([1]; 16 g/mu): 4 (above 30% growth inhibition rate) | weed control effect (activity level), Flixweed [2]: 10

CCn1nc(C)c(C(=O)c2ccc(S(C)(=O)=O)c(Cn3nc(C)cc3C)c2Cl)c1O [Compound 17]
weed control effect (activity level), Barnyard grass ([1]; 1 g/mu): 2 (above 20% growth inhibition rate) | weed control effect (activity level), Barnyard grass ([1]; 2 g/mu): 2 (above 20% growth inhibition rate) | weed control effect (activity level), Barnyard grass ([1]; 4 g/mu): 2 (above 20% growth inhibition rate) | weed control effect (activity level), Barnyard grass ([1]; 8 g/mu): 4 (above 30% growth inhibition rate) | weed control effect (activity level), Barnyard grass ([1]; 16 g/mu): 5 (above 50% growth inhibition rate) | weed control effect (activity level), Flixweed [2]: 10

Cc1cc(C)n(Cc2c(S(C)(=O)=O)ccc(C(=O)c3c(C)nn(C)c3OC(=O)c3nc(Cl)ccc3Cl)c2Cl)n1 [Compound 40]
weed control effect (activity level), Barnyard grass ([1]; 1 g/mu): 3 (above 30% growth inhibition rate) | weed control effect (activity level), Barnyard grass ([1]; 2 g/mu): 5 (above 50% growth inhibition rate) | weed control effect (activity level), Barnyard grass ([1]; 4 g/mu): 5 (above 50% growth inhibition rate) | weed control effect (activity level), Barnyard grass ([1]; 8 g/mu): 7 (above 70% growth inhibition rate) | weed control effect (activity level), Barnyard grass ([1]; 16 g/mu): 8 (above 80% growth inhibition rate) | weed control effect (activity level), Flixweed [2]: 10
